Assay results reported in patent EP0629400B1 (TAKEDA CHEMICAL INDUSTRIES, LTD., priority 1993, dated 1994).

Key:
[1] = system: Patients with Alzheimer type dementia; test: Double-blind controlled study, efficacy by Alzheimer's Disease Assessment Scale (ADAS); format: in vivo; conditions: for Score Difference after 6 Months of Administration (mean ± SD): ADAS, n=100, severity increases as the value increases
Description: A double-blind controlled study was conducted in patients with Alzheimer type dementia.
There was no bias in background factors or pre-administration values for efficacy evaluation index among the three groups. Efficacy was evaluated by the Alzheimer's Disease Assessment Scale (ADAS) [American Journal of Psychiatry, Vol. 141, pp. 1356-1364, (1984)], an index for rating the therapeutic effect on Alzheimer's disease recommended by the FDA and all over the world. The results were statistically analyzed to rate the efficacy.
The drugs administered to the patients in the experiment were the tablet preparations of Example 1 and Comparative Examples 1 and 2 above.

[2] = system: patients with Alzheimer's disease; conditions: 45 mg twice a day (daily dose 90 mg); cited from earlier work
mouse astroglias = conditions: cited from earlier work

COC1=C(OC)C(=O)C(CCCCCCCCCCO)=C(C)C1=O [idebenone, 6-(10-hydroxydecyl)-2,3-dimethoxy-5-methyl-1,4-benzoquinone]
symptoms of Alzheimer's disease ([1]; 90 mg 3 times a day, compared with 30 mg 3 times a day and placebo): improvement of statistical significance
Score Difference after 6 Months of Administration (mean ± SD) ([1]; 30 mg TID oral after meals (tablets of Comparative Example 1)): -5.5 ± 7.2
Score Difference after 6 Months of Administration (mean ± SD) ([1]; 90 mg TID oral after meals (tablets of Example 1)): -8.0 ± 8.5
efficacy in patients with Alzheimer's disease [2]: proved effective
nerve growth factor (NGF) secretion (mouse astroglias): induction and promotion of nerve growth factor (NGF) secretion
